Values joined by “and” are separate entries in the source; they are usually repeats but may differ in a detail not shown here. Identical values can stand only once.
Test system: KRAS-mutant PDC complex spheroid viability
Assay: Anticancer human tumor 186277-243-T-J2-PDC patient-derived colon adenocarcinoma cell line growth inhibition [KRAS2]
Conditions: for viability, T/C: stronger effect = lower value
Method in brief: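 KRAS-mutant tumor cells were grown as spheroids with HUVEC endothelial cells and human MSCs as stroma. Targeted agents were tested alone and with KRAS pathway inhibitors. Doses started at or near clinical Cmax, or 10 microM, descending half-log.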

[1] = curve of first compound, second compound 0.1 µM
[2] = curve of first compound, second compound 0.316 µM
[3] = curve of first compound, second compound 1 µM
[4] = curve of first compound, second compound 3.16 µM
[5] = second compound 0.1 µM, first compound 0.0316 µM
[6] = second compound 0.1 µM, first compound 0.1 µM
[7] = second compound 0.316 µM, first compound 0.0316 µM
[8] = second compound 0.316 µM, first compound 0.1 µM
[9] = second compound 1 µM, first compound 0.0316 µM
[10] = second compound 1 µM, first compound 0.1 µM
[11] = second compound 3.16 µM, first compound 0.0316 µM
[12] = second compound 3.16 µM, first compound 0.1 µM
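Wherever viability, T/C is given: viability read after seven days of compound exposure; 100% = DMSO vehicle-treated spheroids so lower means less viable.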

## CN(C)C/C=C/C(=O)Nc1cc2c(Nc3ccc(F)c(Cl)c3)ncnc2cc1O[C@H]1CCOC1 + C=CC(=O)N1CCN(c2nc(OCC3CCCN3C)nc3c2CCN(c2cccc4cccc(C)c24)C3)CC1CC#N
Curve of first compound, second compound 0.0316 µM
  IC50: > 100 nM
[1]
  IC50: > 100 nM
[2]
  IC50: > 100 nM
[3]
  IC50: > 100 nM
[4]
  IC50: < 0.316 nM
Second compound 0.0316 µM, first compound 0.000316 µM
  viability, T/C: 98.6%
Second compound 0.0316 µM, first compound 0.001 µM
  viability, T/C: 106%
Second compound 0.0316 µM, first compound 0.00316 µM
  viability, T/C: 100%
Second compound 0.0316 µM, first compound 0.01 µM
  viability, T/C: 103%
Second compound 0.0316 µM, first compound 0.0316 µM
  viability, T/C: 118%
Second compound 0.0316 µM, first compound 0.1 µM
  viability, T/C: 112%
Second compound 0.1 µM, first compound 0.000316 µM
  viability, T/C: 109%
Second compound 0.1 µM, first compound 0.001 µM
  viability, T/C: 95.5%
Second compound 0.1 µM, first compound 0.00316 µM
  viability, T/C: 94%
Second compound 0.1 µM, first compound 0.01 µM
  viability, T/C: 117%
[5]
  viability, T/C: 110%
[6]
  viability, T/C: 105%
Second compound 0.316 µM, first compound 0.000316 µM
  viability, T/C: 102%
Second compound 0.316 µM, first compound 0.001 µM
  viability, T/C: 102%
Second compound 0.316 µM, first compound 0.00316 µM
  viability, T/C: 103%
Second compound 0.316 µM, first compound 0.01 µM
  viability, T/C: 109%
[7]
  viability, T/C: 111%
[8]
  viability, T/C: 105%
Second compound 1 µM, first compound 0.000316 µM
  viability, T/C: 94.6%
Second compound 1 µM, first compound 0.001 µM
  viability, T/C: 94.5%
Second compound 1 µM, first compound 0.00316 µM
  viability, T/C: 112%
Second compound 1 µM, first compound 0.01 µM
  viability, T/C: 106%
[9]
  viability, T/C: 98.7%
[10]
  viability, T/C: 105%
Second compound 3.16 µM, first compound 0.000316 µM
  viability, T/C: 0.97%
Second compound 3.16 µM, first compound 0.001 µM
  viability, T/C: 0.41%
Second compound 3.16 µM, first compound 0.00316 µM
  viability, T/C: 0.31%
Second compound 3.16 µM, first compound 0.01 µM
  viability, T/C: 0.31%
[11]
  viability, T/C: 0.23%
[12]
  viability, T/C: 0.38%

## CC(C)NCC(C(=O)N1CCN(c2ncnc3c2C(C)CC3O)CC1)c1ccc(Cl)cc1 (stereo unspecified)
Compound 0.0316 µM
  viability, T/C: 89.6% [middle of 5 runs]
Compound 0.1 µM
  viability, T/C: 89.8% [middle of 5 runs]
Compound 0.316 µM
  viability, T/C: 73% [middle of 5 runs]
Compound 1 µM
  viability, T/C: 39.9% and 40.4% (2×) and 33.2%
Compound 10 µM
  viability, T/C: 12.9% [middle of 5 runs]
Curve of compound
  IC50: 746 nM [middle of 5 runs]

## COC(=O)c1ccc2c(C(=Nc3ccc(N(C)C(=O)CN4CCN(C)CC4)cc3)c3ccccc3)c(O)[nH]c2c1 + CC1OCC2(CCN(c3cnc(Sc4ccnc(N)c4Cl)c(N)n3)CC2)C1N
[1]
  IC50: 2140 nM
[2]
  IC50: 1850 nM
[3]
  IC50: 1510 nM
[4]
  IC50: 692 nM
Curve of first compound, second compound 10 µM
  IC50: 368 nM
[5]
  viability, T/C: 105%
[6]
  viability, T/C: 108%
Second compound 0.1 µM, first compound 0.316 µM
  viability, T/C: 116%
Second compound 0.1 µM, first compound 1 µM
  viability, T/C: 120%
Second compound 0.1 µM, first compound 3.16 µM
  viability, T/C: 18%
Second compound 0.1 µM, first compound 10 µM
  viability, T/C: 12.9%
[7]
  viability, T/C: 108%
[8]
  viability, T/C: 105%
Second compound 0.316 µM, first compound 0.316 µM
  viability, T/C: 113%
Second compound 0.316 µM, first compound 1 µM
  viability, T/C: 98.9%
Second compound 0.316 µM, first compound 3.16 µM
  viability, T/C: 4.62%
Second compound 0.316 µM, first compound 10 µM
  viability, T/C: 10.2%
[9]
  viability, T/C: 116%
[10]
  viability, T/C: 108%
Second compound 1 µM, first compound 0.316 µM
  viability, T/C: 100%
Second compound 1 µM, first compound 1 µM
  viability, T/C: 74.8%
Second compound 1 µM, first compound 3.16 µM
  viability, T/C: 4.4%
Second compound 1 µM, first compound 10 µM
  viability, T/C: 4.44%
[11]
  viability, T/C: 103%
[12]
  viability, T/C: 93.2%
Second compound 3.16 µM, first compound 0.316 µM
  viability, T/C: 94%
Second compound 3.16 µM, first compound 1 µM
  viability, T/C: 29.4%
Second compound 3.16 µM, first compound 3.16 µM
  viability, T/C: 1.17%
Second compound 3.16 µM, first compound 10 µM
  viability, T/C: 1.68%
Second compound 10 µM, first compound 0.0316 µM
  viability, T/C: 83%
Second compound 10 µM, first compound 0.1 µM
  viability, T/C: 82%
Second compound 10 µM, first compound 0.316 µM
  viability, T/C: 54.5%
Second compound 10 µM, first compound 1 µM
  viability, T/C: 15.6%
Second compound 10 µM, first compound 3.16 µM
  viability, T/C: 0.48%
Second compound 10 µM, first compound 10 µM
  viability, T/C: 0.71%

From PubChem BioAssay AID1963875 (Molecular Pharmacology Branch, DTP, NCI, 2024)
